Measured values reported in the kinase profiling compilation of Christmann-Franck et al. (2016).

Key:
Assay in all cases: KINOMEscan competition binding
Settings in all cases: compound 1.0 µM
ACVRL1 (human) = ACVRL1 (human) (UniProt P37023)
BLK (human) = BLK (human) (UniProt P51451)
CDK17 (human) = CDK17 (human) (UniProt Q00537)
CSNK1A1L (human) = CSNK1A1L (human) (UniProt Q8N752)
[1] = test system: EGFR (human), P00533 [747-751 del / S ins]
[2] = test system: EIF2AK4 KD2 (human), Q9P2K8 [S808G]
EPHB6 (human) = EPHB6 (human) (UniProt O15197)
FGFR1 (human) = FGFR1 (human) (UniProt P11362)
GRK4 (human) = GRK4 (human) (UniProt P32298)
GSK3A (human) = GSK3A (human) (UniProt P49840)
[3] = target: JAK1 JH1 catalytic (human) (UniProt P23458)
[4] = test system: KIT (human), P10721 [V559D/V654A]
LTK (human) = LTK (human) (UniProt P29376)
MAP2K6 (human) = MAP2K6 (human) (UniProt P52564)
MAP3K12 (human) = MAP3K12 (human) (UniProt Q12852)
MAP3K15 (human) = MAP3K15 (human) (UniProt Q6ZN16)
MAP3K3 (human) = MAP3K3 (human) (UniProt Q99759)
MAP4K1 (human) = MAP4K1 (human) (UniProt Q92918)
MAP4K5 (human) = MAP4K5 (human) (UniProt Q9Y4K4)
MAPK10 (human) = MAPK10 (human) (UniProt P53779)
MATK (human) = MATK (human) (UniProt P42679)
MERTK (human) = MERTK (human) (UniProt Q12866)
[5] = test system: MET (human), P08581 [M1250T]
MKNK1 (human) = MKNK1 (human) (UniProt Q9BUB5)
NTRK1 (human) = NTRK1 (human) (UniProt P04629)
PAK3 (human) = PAK3 (human) (UniProt O75914)
PAK7 (human) = PAK7 (human) (UniProt Q9P286)
PIK3CB (human) = PIK3CB (human) (UniProt P42338)
PRKCE (human) = PRKCE (human) (UniProt Q02156)
PRKD1 (human) = PRKD1 (human) (UniProt Q15139)
RET (human) = RET (human) (UniProt P07949)
RPS6KA3 KD2 (human) = RPS6KA3 KD2 (human) (UniProt P51812)
SGK110 (human) = SGK110 (human) (UniProt P0C264)
STK11 (human) = STK11 (human) (UniProt Q15831)
STK17A (human) = STK17A (human) (UniProt Q9UEE5)
STK32A (human) = STK32A (human) (UniProt Q8WU08)
TLK2 (human) = TLK2 (human) (UniProt Q86UE8)
VRK2 (human) = VRK2 (human) (UniProt Q86Y07)

MATK (human), sequence (P42679 whole entry, looked up): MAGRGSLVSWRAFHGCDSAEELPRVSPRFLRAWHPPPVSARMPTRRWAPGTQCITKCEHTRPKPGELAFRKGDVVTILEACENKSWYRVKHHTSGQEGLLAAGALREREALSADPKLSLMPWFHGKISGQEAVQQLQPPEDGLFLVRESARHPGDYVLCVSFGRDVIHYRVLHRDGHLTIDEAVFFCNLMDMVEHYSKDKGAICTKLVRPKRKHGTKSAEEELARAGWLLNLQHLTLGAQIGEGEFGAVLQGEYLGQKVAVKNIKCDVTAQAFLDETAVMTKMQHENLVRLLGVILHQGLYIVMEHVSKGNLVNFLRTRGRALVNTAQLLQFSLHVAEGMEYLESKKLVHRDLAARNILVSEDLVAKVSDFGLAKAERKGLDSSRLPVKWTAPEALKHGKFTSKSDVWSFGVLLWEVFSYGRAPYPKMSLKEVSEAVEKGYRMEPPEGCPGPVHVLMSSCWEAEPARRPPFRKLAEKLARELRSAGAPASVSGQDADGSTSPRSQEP
EIF2AK4 KD2 (human), Q9P2K8 [S808G], sequence (Q9P2K8 whole entry S808G, looked up): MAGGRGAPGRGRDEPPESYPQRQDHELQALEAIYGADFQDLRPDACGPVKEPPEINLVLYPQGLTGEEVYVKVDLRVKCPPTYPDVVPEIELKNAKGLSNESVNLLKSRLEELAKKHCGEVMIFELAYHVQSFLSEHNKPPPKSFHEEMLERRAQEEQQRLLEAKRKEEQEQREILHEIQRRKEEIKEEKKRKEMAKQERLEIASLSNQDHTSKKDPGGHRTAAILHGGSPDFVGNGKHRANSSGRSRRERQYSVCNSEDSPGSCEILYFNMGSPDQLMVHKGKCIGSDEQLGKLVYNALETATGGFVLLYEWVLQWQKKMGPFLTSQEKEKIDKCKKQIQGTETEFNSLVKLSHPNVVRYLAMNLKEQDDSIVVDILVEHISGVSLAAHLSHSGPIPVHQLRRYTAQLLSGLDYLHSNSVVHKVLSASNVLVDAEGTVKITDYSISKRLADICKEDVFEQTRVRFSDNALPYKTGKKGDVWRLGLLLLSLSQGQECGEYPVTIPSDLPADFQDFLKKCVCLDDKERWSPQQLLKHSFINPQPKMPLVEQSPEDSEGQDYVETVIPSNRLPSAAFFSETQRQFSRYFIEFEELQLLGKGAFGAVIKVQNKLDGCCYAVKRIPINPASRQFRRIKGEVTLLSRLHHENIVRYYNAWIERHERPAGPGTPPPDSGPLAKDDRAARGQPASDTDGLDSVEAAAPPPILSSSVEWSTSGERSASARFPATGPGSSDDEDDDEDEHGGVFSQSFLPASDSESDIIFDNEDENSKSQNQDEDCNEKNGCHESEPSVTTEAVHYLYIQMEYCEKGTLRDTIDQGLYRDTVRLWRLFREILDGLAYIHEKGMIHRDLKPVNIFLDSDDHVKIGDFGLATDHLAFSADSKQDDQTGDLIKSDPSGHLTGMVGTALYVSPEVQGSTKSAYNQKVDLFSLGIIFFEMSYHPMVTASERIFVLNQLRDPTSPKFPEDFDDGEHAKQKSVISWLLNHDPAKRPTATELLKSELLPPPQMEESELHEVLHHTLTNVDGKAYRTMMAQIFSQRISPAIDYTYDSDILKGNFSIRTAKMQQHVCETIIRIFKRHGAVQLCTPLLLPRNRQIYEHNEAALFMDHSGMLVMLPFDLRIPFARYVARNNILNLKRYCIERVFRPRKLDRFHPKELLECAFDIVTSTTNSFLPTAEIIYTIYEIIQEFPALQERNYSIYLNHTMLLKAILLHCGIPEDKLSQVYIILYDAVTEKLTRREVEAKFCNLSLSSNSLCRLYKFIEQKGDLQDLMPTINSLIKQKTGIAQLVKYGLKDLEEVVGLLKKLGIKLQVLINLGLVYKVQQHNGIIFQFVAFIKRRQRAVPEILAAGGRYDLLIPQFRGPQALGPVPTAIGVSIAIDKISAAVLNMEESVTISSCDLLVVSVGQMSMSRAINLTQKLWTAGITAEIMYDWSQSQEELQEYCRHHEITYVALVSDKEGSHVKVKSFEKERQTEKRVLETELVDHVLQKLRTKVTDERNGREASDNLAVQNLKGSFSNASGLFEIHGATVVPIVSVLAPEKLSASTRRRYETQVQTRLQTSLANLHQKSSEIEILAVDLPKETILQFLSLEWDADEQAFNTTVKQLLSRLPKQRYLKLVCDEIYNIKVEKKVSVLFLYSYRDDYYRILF
CDK17 (human), sequence (Q00537 whole entry, looked up): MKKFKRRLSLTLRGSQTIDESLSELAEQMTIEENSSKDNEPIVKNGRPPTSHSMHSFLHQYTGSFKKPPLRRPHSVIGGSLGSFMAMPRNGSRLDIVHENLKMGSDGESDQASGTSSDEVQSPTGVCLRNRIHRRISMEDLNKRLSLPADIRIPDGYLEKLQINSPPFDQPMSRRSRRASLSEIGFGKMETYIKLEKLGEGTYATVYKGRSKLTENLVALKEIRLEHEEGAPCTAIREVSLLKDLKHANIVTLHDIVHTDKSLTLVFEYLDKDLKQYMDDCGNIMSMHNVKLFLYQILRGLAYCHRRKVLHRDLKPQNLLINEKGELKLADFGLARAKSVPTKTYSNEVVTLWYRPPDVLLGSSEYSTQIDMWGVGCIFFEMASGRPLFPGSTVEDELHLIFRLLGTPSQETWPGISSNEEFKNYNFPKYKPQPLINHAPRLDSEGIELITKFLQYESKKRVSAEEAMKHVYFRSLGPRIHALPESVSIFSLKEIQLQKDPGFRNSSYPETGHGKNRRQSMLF
STK17A (human), sequence (Q9UEE5 whole entry, looked up): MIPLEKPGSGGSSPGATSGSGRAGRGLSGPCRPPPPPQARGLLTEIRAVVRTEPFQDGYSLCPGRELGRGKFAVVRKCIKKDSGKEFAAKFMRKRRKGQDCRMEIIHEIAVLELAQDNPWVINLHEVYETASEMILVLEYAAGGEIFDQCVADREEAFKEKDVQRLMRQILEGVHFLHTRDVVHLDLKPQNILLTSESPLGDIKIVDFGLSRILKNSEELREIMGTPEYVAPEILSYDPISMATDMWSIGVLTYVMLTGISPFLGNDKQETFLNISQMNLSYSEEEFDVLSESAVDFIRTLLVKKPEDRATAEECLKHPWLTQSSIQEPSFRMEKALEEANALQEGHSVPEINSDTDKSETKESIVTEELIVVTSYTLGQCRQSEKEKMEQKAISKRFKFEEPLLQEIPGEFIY
MAP3K12 (human), sequence (Q12852 whole entry, looked up): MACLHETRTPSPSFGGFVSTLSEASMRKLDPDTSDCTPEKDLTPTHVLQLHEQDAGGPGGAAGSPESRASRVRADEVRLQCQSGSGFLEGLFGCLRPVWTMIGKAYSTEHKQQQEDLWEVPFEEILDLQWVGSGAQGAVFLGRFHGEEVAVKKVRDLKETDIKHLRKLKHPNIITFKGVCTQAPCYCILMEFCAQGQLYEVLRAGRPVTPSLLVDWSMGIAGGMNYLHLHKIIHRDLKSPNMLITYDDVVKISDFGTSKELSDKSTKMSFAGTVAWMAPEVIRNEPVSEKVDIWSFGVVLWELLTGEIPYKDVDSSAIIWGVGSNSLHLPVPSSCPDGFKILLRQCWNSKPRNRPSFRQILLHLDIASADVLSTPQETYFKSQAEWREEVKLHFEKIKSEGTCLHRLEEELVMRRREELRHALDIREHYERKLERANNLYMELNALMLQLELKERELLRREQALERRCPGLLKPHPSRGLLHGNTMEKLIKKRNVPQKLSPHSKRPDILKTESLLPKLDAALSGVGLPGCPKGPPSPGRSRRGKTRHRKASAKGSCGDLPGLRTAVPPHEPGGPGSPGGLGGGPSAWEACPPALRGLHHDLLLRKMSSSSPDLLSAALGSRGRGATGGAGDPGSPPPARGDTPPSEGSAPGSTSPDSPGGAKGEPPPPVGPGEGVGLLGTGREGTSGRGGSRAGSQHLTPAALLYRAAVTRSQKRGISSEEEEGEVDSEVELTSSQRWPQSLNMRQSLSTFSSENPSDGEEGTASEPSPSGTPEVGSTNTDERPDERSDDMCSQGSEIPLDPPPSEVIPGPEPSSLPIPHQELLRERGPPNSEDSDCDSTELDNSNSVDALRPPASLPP
MAP4K1 (human), sequence (Q92918 whole entry, looked up): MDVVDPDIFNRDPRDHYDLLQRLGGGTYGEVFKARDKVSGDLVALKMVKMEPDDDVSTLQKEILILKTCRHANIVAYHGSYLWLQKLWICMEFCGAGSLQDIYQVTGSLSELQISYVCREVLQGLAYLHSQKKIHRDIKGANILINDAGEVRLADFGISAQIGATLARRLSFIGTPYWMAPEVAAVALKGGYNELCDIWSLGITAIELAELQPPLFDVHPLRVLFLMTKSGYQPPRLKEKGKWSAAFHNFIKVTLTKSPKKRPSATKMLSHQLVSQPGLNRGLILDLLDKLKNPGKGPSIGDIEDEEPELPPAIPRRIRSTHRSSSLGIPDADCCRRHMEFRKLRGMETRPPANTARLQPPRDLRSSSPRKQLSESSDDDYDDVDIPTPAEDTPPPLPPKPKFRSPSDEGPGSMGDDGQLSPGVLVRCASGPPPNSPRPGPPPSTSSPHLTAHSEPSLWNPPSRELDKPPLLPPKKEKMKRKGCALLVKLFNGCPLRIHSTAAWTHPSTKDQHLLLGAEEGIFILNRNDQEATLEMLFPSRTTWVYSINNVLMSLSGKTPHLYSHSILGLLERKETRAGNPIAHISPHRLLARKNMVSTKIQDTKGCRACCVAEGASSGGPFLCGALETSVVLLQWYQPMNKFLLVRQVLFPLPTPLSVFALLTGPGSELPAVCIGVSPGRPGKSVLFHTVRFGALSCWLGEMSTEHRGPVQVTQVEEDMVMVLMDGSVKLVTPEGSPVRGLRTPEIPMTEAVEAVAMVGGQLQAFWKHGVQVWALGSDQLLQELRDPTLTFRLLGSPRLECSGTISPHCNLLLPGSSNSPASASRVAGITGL

For `CNc1nc(Nc2ccc(C(=O)N3CCOCC3)cc2OC)ncc1Cl`, the kinase still bound, per cent of control (ACVRL1 (human)) was 100%, the kinase still bound, per cent of control (BLK (human)) was 100% and the residual activity (CDK17 (human)) was 97%. The kinase still bound, per cent of control (CSNK1A1L (human)) was 94%, the kinase still bound, per cent of control [1] was 100% and the kinase still bound, per cent of control [2] was 85%. The kinase still bound, per cent of control (EPHB6 (human)) was 100%, the kinase still bound, per cent of control (FGFR1 (human)) was 55% and the kinase still bound, per cent of control (GRK4 (human)) was 75%. It also gave a kinase still bound, per cent of control (GSK3A (human)) of 100%, a kinase still bound, per cent of control [3] of 82% and a kinase still bound, per cent of control [4] of 100%. For the same compound, the kinase still bound, per cent of control (LTK (human)) was 50%, the kinase still bound, per cent of control (MAP2K6 (human)) was 100% and the residual activity (MAP3K12 (human)) was 100%. It also gave a kinase still bound, per cent of control (MAP3K15 (human)) of 97%, a kinase still bound, per cent of control (MAP3K3 (human)) of 56% and a kinase still bound, per cent of control (MAP4K1 (human)) of 100%. It also gave a kinase still bound, per cent of control (MAP4K5 (human)) of 73%, a kinase still bound, per cent of control (MAPK10 (human)) of 42% and a kinase still bound, per cent of control (MATK (human)) of 100%. It also gave a kinase still bound, per cent of control (MERTK (human)) of 100%, a kinase still bound, per cent of control [5] of 100% and a kinase still bound, per cent of control (MKNK1 (human)) of 88%. The kinase still bound, per cent of control (NTRK1 (human)) was 99%, the kinase still bound, per cent of control (PAK3 (human)) was 88% and the kinase still bound, per cent of control (PAK7 (human)) was 62%. For the same compound, the kinase still bound, per cent of control (PIK3CB (human)) was 100%, the kinase still bound, per cent of control (PRKCE (human)) was 86% and the kinase still bound, per cent of control (PRKD1 (human)) was 83%. For the same compound, the kinase still bound, per cent of control (RET (human)) was 96%, the kinase still bound, per cent of control (RPS6KA3 KD2 (human)) was 95% and the kinase still bound, per cent of control (SGK110 (human)) was 100%. For the same compound, the kinase still bound, per cent of control (STK11 (human)) was 90%, the kinase still bound, per cent of control (STK17A (human)) was 53% and the kinase still bound, per cent of control (STK32A (human)) was 100%. The kinase still bound, per cent of control (TLK2 (human)) was 100% and the kinase still bound, per cent of control (VRK2 (human)) was 95%.
